# Reference: patent US20120064556A1, “LIPOPROTEIN LIPASE ASSAY” (THE RESEARCH FOUNDATION OF STATE UNIVERSTIY OF NEW YORK, priority 2010, published 2012)
# T1: human LPL (Homo sapiens, UniProt P06858)
# T1 construct: made in house; host or cells: HEK293 (conditioned medium, not purified)
# T1 sequence (P06858 28-475): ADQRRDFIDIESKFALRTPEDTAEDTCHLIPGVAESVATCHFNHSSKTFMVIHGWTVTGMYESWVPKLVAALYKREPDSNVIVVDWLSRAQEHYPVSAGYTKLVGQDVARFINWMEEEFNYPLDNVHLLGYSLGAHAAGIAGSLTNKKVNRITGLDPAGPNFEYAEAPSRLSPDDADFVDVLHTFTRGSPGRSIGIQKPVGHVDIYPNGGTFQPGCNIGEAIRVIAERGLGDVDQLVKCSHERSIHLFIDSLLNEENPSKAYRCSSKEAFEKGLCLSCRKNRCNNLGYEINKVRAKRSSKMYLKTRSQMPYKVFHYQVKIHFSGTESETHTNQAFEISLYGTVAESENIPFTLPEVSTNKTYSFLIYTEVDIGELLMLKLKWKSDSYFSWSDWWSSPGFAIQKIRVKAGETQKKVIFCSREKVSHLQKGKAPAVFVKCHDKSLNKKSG
# B1: ANGPTL4 conditioned media: conditioned medium from transfected HEK293 cells containing ANGPTL4, an endogenous inhibitor of LPL (protein, UniProt Q9BY76 26-406, looked up)
# Angiopoietin-related protein 4: GPVQSKSPRFASWDEMNVLAHGLLQLGQGLREHAERTRSQLSALERRLSACGSACQGTEGSTDLPLAPESRVDPEVLHSLQTQLKAQNSRIQQLFHKVAQQQRHLEKQHLRIQHLQSQFGLLDHKHLDHEVAKPARRKRLPEMAQPVDPAHNVSRLHRLPRDCQELFQVGERQSGLFEIQPQGSPPFLVNCKMTSDGGWTVIQRRHDGSVDFNRPWEAYKAGFGDPHGEFWLGLEKVHSITGDRNSRLAVQLRDWDGNAELLQFSVHLGGEDTAYSLQLTAPVAGQLGATTVPPSGLSVPFSTWDQDHDLRRDKNCAKSLSGGWWFGTCSHSNLNGQYFRSIPQQRQKLKKGIFWKTWRGRYYPLQATTMLIQPMAAEAAS
# modifications: in conditioned medium of transfected HEK293 cells
# How the values were obtained:
# lipoprotein lipase (LPL) = test: EnzChek substrate fluorescence assay of LPL activity; format: biochemical; details: for increase of LPL activity: over the concentration ranges tested (FIGS. 5A and 5B)
# Method: In FIG. 1, background substrate hydrolysis was deducted from each measurement, initial rate was plotted against substrate concentration and each data point is the mean of triplicate determinations.
# The effects of components that may be present in biological LPL samples and affect the assay were also evaluated and illustrated in FIG. 5. Addition of heparin and calcium increased LPL activity by about 6% over the concentration ranges tested, shown in FIGS. 5A and 5B, while HIS, added from 0-10% decreased the activity by about 12%, shown in FIG. 5C. Addition of NaCl increased the reaction rate, shown in FIG. 5D, with the highest rate, 46% higher than that without salt, occurring at 0.15 M. As NaCl was increased further, the reaction rate dropped, but even at 2.5 M was not reduced to that without NaCl. This implies that there is no inhibition of LPL activity by NaCl if apoC-II is not used in the assay.
# The SpectraMax® M2 plate reader and SoftMax® Pro 5 from MDS Analytical Technologies were used for fluorescent measurements. The optimal wavelength was determined to be […] with a 495 nm filter cutoff. The linear capacity of these instruments is up to 2.4 μmol/well. An assay was performed in a black 96-well plate from Costar® in the presence of 0.15 M NaCl, 20 mM Tris-HCl, and 0.0125% Zwittergent® and 1.5% fatty acid free BSA. A 4× working solution was freshly prepared with 0.6 M NaCl, 80 mM Tris-HCl and 6% fatty acid free BSA. The background hydrolysis rate of the substrate was about 1 pmol/min. In the typical assay, the amount of substrate hydrolyzed was less than about 5% of the available substrate.
# Enzymatic parameters were calculated using unquenched the BODIPY-C12 probe, the reaction rate in pmol/min was calculated. The rate of hydrolysis as determined from the continuous increase in fluorescence intensity is equal to the rate of separation of the quencher fatty acid from the substrate. Enzymatic parameters such as Vmax, Km, Kcat, detection limit, Z factors and correlation coefficient were calculated based on the standard definition of those parameters. The data is presented as mean plus standard deviation of three replicates and described below in Example 2 for a comparison of the inventive method and a traditional assay.
# [1] = solubility and shelf life of substrate in the assay buffer; format: physicochemical
# human LPL [2] = biological target: T1, human LPL; test: EnzChek assay of human LPL activity in conditioned media; format: biochemical; details: 25 μL conditioned medium mixed with 25 μL human LPL medium, 30 minutes on ice, 0.62 μM EnzChek substrate, p<0.05 (FIG. 6A)
# Method: Conditioned media was generated by transfection in HEK293 cells as is known. Medium obtained from cells expressing from an empty vector was included as a control for the LPL assay. No lipase activity was detected in the control medium. Pre and post-heparin mouse serum was obtained from blood drawn 5 minutes after the injection of 10 units heparin per kg body weight of the mouse.
# To determine whether the conditions of the assay are such that the two forms of the enzyme are maintained and can be differentiated by the biological activity of the lipase, two conditioned media were generated containing human LPL and ANGPTL4 respectively.
# (§1) Background substrate hydrolysis was deducted from each measurement. LPL activity is expressed as a percentage of the activity measured in the absence of ANGPTL4. The values are the mean +/− standard deviation in triplicate repeats, p<0.05.
# human LPL [3] = biological target: T1, human LPL; test: radiolabeled triolein assay of human LPL activity in conditioned media; format: biochemical; details: same samples, radiolabeled triolein assay (FIG. 6B)
# Description: as §1
molecule,measurement,setting,value
[Cl-].[Na+] [NaCl],reaction rate higher than that without salt,"lipoprotein lipase (LPL); highest rate, at 0.15 M (FIG. 5D)",46%
same,inhibition of LPL activity,"lipoprotein lipase (LPL); up to 2.5 M, apoC-II not used in the assay",no inhibition
"CCCCCCCCCCCCOCC(COC(=O)CCCC(=O)Oc1ccc2nc3ccc(=O)cc-3oc2c1C)OCCCCCCCCCCCC (racemic) [DGGR substrate, 1,2-o-dilauryl-rac-glycero-3-glutaric acid-(6′-methylresorufin) ester]",shelf life / precipitation in the assay buffer,[1],precipitated after only one week
same,solubility in the assay buffer,[1],limited solubility
heparin [reference compound],increase of LPL activity,lipoprotein lipase (LPL),about 6%
[Ca+2] [calcium],increase of LPL activity,lipoprotein lipase (LPL),about 6%
B1,effect on LPL activity,human LPL [2],inhibited the LPL activity
same,effect on LPL activity,human LPL [3],comparable result
